# Data taken from patent US11713297B2, “Crystalline form of N-butyldeoxygalactonojirimycin” (IDORSIA PHARMACEUTICALS LTD, priority 2017, dated 2023).
# Key:
# [1] = tested on: plasma levels of metabolic substrates; experiment: Phase Ib study in patients suffering from Fabry disease; type: in vivo; conditions: on top of enzyme replacement therapy
# [2] = Gravimetric vapour sorption (GVS) analysis, hygroscopicity; type: physicochemical; conditions: crystalline form 1; 25° C.; mass change between 40% and 80% RH in first adsorption scan; European Pharmacopeia 8.0 classification
# Description: Gravimetric Vapour Sorption (GVS) Analysis
# Measurements were performed on a multi sample instrument SPS-100n (Projekt Messtechnik, Ulm, Germany) operated in stepping mode at 25° C. The sample was allowed to equilibrate at 40% RH before starting a pre-defined humidity program (40-0-95-0-95-40% RH, steps of 5% ΔRH and with a maximal equilibration time of 24 hours per step were applied. About 20 to 30 mg of each sample was used. The hygroscopic classification is done according to the European Pharmacopeia 8.0, e.g., slightly hygroscopic: increase in mass is less than 2% and equal to or greater than 0.2% mass/mass; hygroscopic: increase in mass is less than 15% and equal to or greater than 2% mass/mass. The mass change between 40% relative humidity and 80% relative humidity in the first adsorption scan is considered.
# [3] = Thermogravimetric analysis (TGA); type: physicochemical; conditions: crystalline form 1; in the range 31.5 to 140° C.
# Description: Thermogravimetric Analysis (TGA)
# TGA data were collected on a Mettler Toledo STARe System (TGA851e module and STAR software version 9.20) equipped with a 34-position auto-sampler. Typically, about 5 mg of a sample, in an automatically pierced aluminium pan, was heated at 10° C. min^−1, unless stated otherwise, from 30° C. to 250° C. A nitrogen purge at 10 ml min^−1 was maintained over the sample.
# [4] = Particle size distribution (PSD) by laser diffraction, wet dispersion; type: physicochemical; conditions: crystalline form 1; average of at least five crystallization batches, each measured in triplicate
# From the text: Particle size distributions are defined herein as D10, D50 and D90. D10, D50 and D90 represent the particle diameter corresponding to the respective percentage in volume (i.e. 10%, 50%, 90%) of a given sample which is below the indicated diameter. For example, a D50 from about 70 μm to about 150 μm means that 50% of the volume of a given sample has a diameter which is equal or below a diameter that is in the range between about 70 μm and about 150 μm. Particle size distributions may be determined using standard procedures such as laser diffraction.
# Particle Size Distribution (PSD)
# PSD measurements were performed by laser-diffraction using a wet dispersion method. Data were collected on a Mastersizer 2000 (Malvern) equipped with a dispersion unit Hydro 2000S in the size range from 0.020 μm to 2000.000 μm. Typically, about 100 mg sample in about 20 ml Tegiloxan 3 (silicon oil, CAS Nr. 9016-00-6) is dispersed in an ultrasonic bad for about 30 s and subsequently added to a prefilled with Tegiloxan 3 dispersion unit until obscuration of about 10% to about 30% is achieved. After a circulation time of 5 min, a sample measurement is performed. Reported particle size values (D10, D50 and D90) represent an average value of 3 measurements.
# Particle size measurements of COMPOUND in crystalline form 1 as obtained in Examples 1, 2 and Reference Example 3 are performed using the method described herein. Each data point in Table 3 represents an average value obtained from at least five separate crystallization batches, each measured in triplicate.
Compound,plasma levels of metabolic substrates thought to be related to the development of the disease [1],Hygroscopicity [2],TGA mass loss [3],D10 [4] [μm],D50 [4] [μm],D90 [4] [μm]
"CCCCN1C[C@H](O)[C@@H](O)[C@@H](O)[C@H]1CO [COMPOUND, (2R,3S,4R,5S)-1-butyl-2-(hydroxymethyl)piperidine-3,4,5-triol]",marked decrease,Not hygroscopic,Mass loss of <0.1% in the range,,,
"CCCCN1C[C@H](O)[C@@H](O)[C@@H](O)[C@H]1CO [Example 2, (2R,3S,4R,5S)-1-butyl-2-(hydroxymethyl)piperidine-3,4,5-triol]",,,,7,57,138
"CCCCN1C[C@H](O)[C@@H](O)[C@@H](O)[C@H]1CO [Reference Example 3, (2R,3S,4R,5S)-1-butyl-2-(hydroxymethyl)piperidine-3,4,5-triol]",,,,7,22,42
